Results on eight compounds are retold here after US20250122191A1, “COMPOUNDS AS BCL-2 INHIBITORS” (Fochon Biosciences, Ltd, priority 2021, published 2025).

Structures are written as SMILES.

The subject of one data set is RS4;11-BCL-2 D103Y cells. The experiment in a line: Cell proliferation assay (MTS), RS4;11-BCL-2 D103Y engineered cells. The class given is cell-based. As to conditions: Homo sapiens, 72 h, read-out: RS4, 11 BCL2-D103Y IC50. The text has this:
MTS testing kit was purchased from Promega (Madison, WI, USA). The RPMI-1640, Fetal bovine serum and Penicillin-Streptomycin were purchased from BI (Biological Industries, Beit Haemek, Israel). Puromycin was purchased from Beyotime (shanghai, China). Dimethyl sulfoxide (DMSO) was purchased from Sigma (St. Louis., MO, USA). RS4;11-BCL-2 G101V (Cobioer Lot. #: CBD2021063013P4), RS4;11-BCL-2 D103E (Cobioer Lot. #: CBD2021063013P4), RS4;11-BCL-2 D103Y (Cobioer Lot. #: CBD2022012101P4) and RS4;11-BCL-2 F104L (Cobioer Lot. #: CBD2021063014P4) cells were cultured in RPMI1640 supplemented with 1 ug/mL puromycin, 100 U/mL Penicillin-Streptomycin and 10% FBS.
To investigate whether a compound is able to inhibit the activity of BCL-2 mutation in cells, a mechanism-based assay using engineered cell lines stably overexpressing BCL-2 mutation (RS4;11-BCL-2 G101V, RS4;11-BCL-2 D103E, RS4;11-BCL-2 D103Y, and RS4;11-BCL-2 F104L) was developed. In this assay, the inhibition of BCL-2 mutation was reflected by the inhibition of cell proliferation of engineered RS4;11 cells. Cells were plated into 96-well plates at optimized cell density (RS4;11-BCL-2 G101V: 5000 cells/well; RS4;11-BCL-2 D103E: 7500 cells/well; RS4;11-BCL-2 D103Y: 7500 cells/well; RS4;11-BCL-2 F104L: 5000 cells/well). Plates were incubated at 37° C., with 5% CO2 for 4 h (RS4;11-BCL-2 G101V, RS4;11-BCL-2 F104L) and 24 h (RS4;11-BCL-2 D103E, RS4;11-BCL-2 D103Y), respectively. Compounds were serially diluted and added to the plates with the final concentrations of 10000, 3333.3, 1111.1, 370.4, 123.5, 41.2, 13.7, 4.6 and 1.5 nM. Plates were incubated at 37° C., with 5% CO2 for 120 h (RS4; 11-BCL-2 G101V, RS4; 11-BCL-2 F104L) and 72 h (RS4;11-BCL-2 D103E, RS4;11-BCL-2 D103Y), respectively. 20 μl MTS was added into each well and the plates were incubated at 37° C., with 5% CO2 exactly for 2 h. The absorbance was measured by a microplate reader at 490 nm. IC50 values were calculated using GraphPad Prism 8.0 software.

For a further data set, the system named is RS4;11-BCL-2 G101V cells. The data set can be described thus: Cell proliferation assay (MTS), RS4;11-BCL-2 G101V engineered cells. The class given is cell-based. As to conditions: Homo sapiens, 120 h, read-out: RS4, 11 BCL2-G101V IC50. An outline of the steps: (§1)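 Cells were plated, allowed to settle 4 h (G101V, F104L) or 24 h (D103E, D103Y), and treated with serially diluted compound (10000 down to 1.5 nM). After 120 h or 72 h respectively at 37 °C, MTS was added for 2 h and absorbance at 490 nm gave IC50 values.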

A further data set deals with RS4;11-BCL-2 D103E cells. The data set can be described thus: Cell proliferation assay (MTS), RS4;11-BCL-2 D103E engineered cells. The class given is cell-based. As to conditions: Homo sapiens, 72 h, read-out: RS4, 11 BCL2-D103E IC50. The method in brief: as §1
The subject of a further data set is Toledo cells. The experiment in a line: Cell proliferation assay (MTS), Toledo cells. The class given is cell-based. As to conditions: Homo sapiens, 72 h. The method in brief:
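Toledo cells (RPMI-1640, 10% FBS) seeded at 30000 cells/well, rested 4 h, then exposed 72 h at 37 °C, 5% CO2 to compound at nine final concentrations, 1.5–10000 nM. Viability by MTS (2 h), absorbance at 490 nm. IC50 from the concentration-response.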

Data set [1] can be described thus: Pharmacokinetics assay in rats. The class given is in vivo. As to conditions: rat, male Sprague-Dawley rats, po, 5 mg/kg, plasma; for Cmax: read-out: Cmax/C0. As to the method:
The purpose of this study was to determine the pharmacokinetics of Examples in male Sprague-Dawley rats (Supplied by Beijing Vital River Laboratory Animal Technology Co., Ltd.) following a single intravenous bolus injection at 1 mg/kg and oral gavage (PO) administration at 5 mg/kg.
Animals in Group 1 were administered with Examples by single intravenous bolus injection at 1 mg/kg, which was formulated in 10% DMSO (Sigma, Batch #LPCOS181): 60% PEG400 (Sigma, Batch #MKCH6281): 30% water, pH 5-6 at 1 mg/mL as a solution. Animals in Group 2 were administered with Examples by single oral gavage (PO) administration at 5 mg/kg, which was formulated in 10% DMSO (Sigma, Batch #BCCD6641): 60% PEG400 (Sigma, Batch #MKCL4921): 30% water at 1 mg/mL as a solution. Blood samples were collected at 0.083, 0.25, 0.5, 1, 2, 4, 8, 12 and 24 hours post-dose. Concentrations of Examples in plasma were determined by LC/MS/MS (LC: Waters UPLC; MS: Triple Quad 6500 plus).

The subject of a further data set is RS4;11-BCL-2 F104L cells. The data set can be described thus: Cell proliferation assay (MTS), RS4;11-BCL-2 F104L engineered cells. The class given is cell-based. As to conditions: Homo sapiens, 120 h, read-out: RS4, 11 BCL2-F104L IC50. The method in brief: as §1

`COc1cc(CN2CCN(C3CC4(CCN(c5ccc(C(=O)NS(=O)(=O)c6cnc(NC[C@H]7CC[C@](C)(O)CC7)c([N+](=O)[O-])c6)c(Oc6cc7c(F)c[nH]c7nc6OC)c5)CC4)C3)[C@H](c3ccccc3C(C)C)C2)cc(O)n1` [Example 69, 2-((3-fluoro-6-methoxy-1H-pyrrolo[2,3-b]pyridin-5-yl)oxy)-N-((6-((((1r,4r)-4-hydroxy-4-methylcyclohexyl)methyl)amino)-5-nitropyridin-3-yl)sulfonyl)-4-(2-((R)-4-((2-hydroxy-6-methoxypyridin-4-yl)methyl)-2-(2-isopropylphenyl)piperazin-1-yl)-7-azaspiro[3.5]nonan-7-yl)benzamide]: the IC50 with RS4;11-BCL-2 D103Y cells and with RS4;11-BCL-2 G101V cells was 1 nM in each case.
For the compound `COc1ccc(CN2CCN(C3CC4(CCN(c5ccc(C(=O)NS(=O)(=O)c6cnc(NC[C@H]7CC[C@](C)(O)CC7)c([N+](=O)[O-])c6)c(Oc6cnc7[nH]cc(F)c7c6)c5)CC4)C3)[C@H](c3ccccc3C(C)C)C2)cc1OC` [Example 74, 4-(2-((R)-4-(3,4-dimethoxybenzyl)-2-(2-isopropylphenyl)piperazin-1-yl)-7-azaspiro[3.5]nonan-7-yl)-2-((3-fluoro-1H-pyrrolo[2,3-b]pyridin-5-yl)oxy)-N-((6-((((1r,4r)-4-hydroxy-4-methylcyclohexyl)methyl)amino)-5-nitropyridin-3-yl)sulfonyl)benzamide], the IC50 in the data set with RS4;11-BCL-2 D103E cells turned out to be 1 nM; in the data set on RS4;11-BCL-2 D103Y cells, 5 nM; in the data set with Toledo cells it was 1 nM; in the data set with RS4;11-BCL-2 G101V cells, 1 nM.
Regarding `COc1nc2[nH]cc(F)c2cc1Oc1cc(N2CCC3(CC2)CC(N2CCN(Cc4ccnc5c4CCO5)C[C@H]2c2ccccc2C(C)C)C3)ccc1C(=O)NS(=O)(=O)c1cnc(NC[C@H]2CC[C@](C)(O)CC2)c([N+](=O)[O-])c1` [Example 190, 4-(2-((R)-4-((2,3-dihydrofuro[2,3-b]pyridin-4-yl)methyl)-2-(2-isopropylphenyl)piperazin-1-yl)-7-azaspiro[3.5]nonan-7-yl)-2-((3-fluoro-6-methoxy-1H-pyrrolo[2,3-b]pyridin-5-yl)oxy)-N-((6-((((1r,4r)-4-hydroxy-4-methylcyclohexyl)methyl)amino)-5-nitropyridin-3-yl)sulfonyl)benzamide], the IC50 in the data set on RS4;11-BCL-2 D103E cells is 1 nM; in the data set with RS4;11-BCL-2 D103Y cells, 8 nM.
As to `COc1nc2[nH]cc(F)c2cc1Oc1cc(N2CCC3(CC2)CC(N2CCN(Cc4ccnc5c4NCCO5)C[C@H]2c2ccccc2C(C)C)C3)ccc1C(=O)NS(=O)(=O)c1cnc(NC[C@H]2CC[C@](C)(O)CC2)c([N+](=O)[O-])c1` [Example 192, 4-(2-((R)-4-((2,3-dihydro-1H-pyrido[2,3-b][1,4]oxazin-8-yl)methyl)-2-(2-isopropylphenyl)piperazin-1-yl)-7-azaspiro[3.5]nonan-7-yl)-2-((3-fluoro-6-methoxy-1H-pyrrolo[2,3-b]pyridin-5-yl)oxy)-N-((6-((((1r,4r)-4-hydroxy-4-methylcyclohexyl)methyl)amino)-5-nitropyridin-3-yl)sulfonyl)benzamide], the IC50 in the data set with RS4;11-BCL-2 D103E cells and in the data set with RS4;11-BCL-2 D103Y cells was 1 nM in each case.
In the case of `COc1nc2[nH]cc(F)c2cc1Oc1cc(N2CCC3(CC2)CC(N2CCN(Cc4ccnc5c4NCC(C)O5)C[C@H]2c2ccccc2C(C)C)C3)ccc1C(=O)NS(=O)(=O)c1cnc(NC[C@H]2CC[C@](C)(O)CC2)c([N+](=O)[O-])c1` (stereo partly drawn) [Example 195, 2-((3-fluoro-6-methoxy-1H-pyrrolo[2,3-b]pyridin-5-yl)oxy)-N-((6-((((1r,4r)-4-hydroxy-4-methylcyclohexyl)methyl)amino)-5-nitropyridin-3-yl)sulfonyl)-4-(2-((2R)-2-(2-isopropylphenyl)-4-((3-methyl-2,3-dihydro-1H-pyrido[2,3-b][1,4]oxazin-8-yl)methyl)piperazin-1-yl)-7-azaspiro[3.5]nonan-7-yl)benzamide], in the data set with RS4;11-BCL-2 D103Y cells, the IC50 was 8 nM.
As for `COc1cc(CN2CCN(C3CC4(CCN(c5ccc(C(=O)NS(=O)(=O)c6cnc(NC[C@H]7CC[C@](C)(O)CC7)c([N+](=O)[O-])c6)c(Oc6cc7c(F)c[nH]c7nc6OC)c5)CC4)C3)[C@H](c3ccccc3C(C)C)C2)ccn1` [Example 242, 2-((3-fluoro-6-methoxy-1H-pyrrolo[2,3-b]pyridin-5-yl)oxy)-N-((6-((((1r,4r)-4-hydroxy-4-methylcyclohexyl)methyl)amino)-5-nitropyridin-3-yl)sulfonyl)-4-(2-((R)-2-(2-isopropylphenyl)-4-((2-methoxypyridin-4-yl)methyl)piperazin-1-yl)-7-azaspiro[3.5]nonan-7-yl)benzamide], the IC50 in the data set on RS4;11-BCL-2 D103E cells, with Toledo cells, with RS4;11-BCL-2 F104L cells and in the data set with RS4;11-BCL-2 G101V cells was 1 nM in each case. Moreover, the AUC(0-t) in data set [1] turned out to be 2760 ng·h/mL. Further, the half-life in data set [1] is 7.02 h. In addition, in data set [1], the Cmax came to 272 ng/mL.
With `COc1cc(CN2CCN(C3CC4(CCN(c5ccc(C(=O)NS(=O)(=O)c6cnc(NC[C@H]7CC[C@](C)(O)CC7)c([N+](=O)[O-])c6)c(Oc6cc7c(F)c[nH]c7nc6OC)c5)CC4)C3)[C@H](c3ccccc3C(C)C)C2)ncc1C1CC1` [Example 249, 4-(2-((R)-4-((5-cyclopropyl-4-methoxypyridin-2-yl)methyl)-2-(2-isopropylphenyl)piperazin-1-yl)-7-azaspiro[3.5]nonan-7-yl)-2-((3-fluoro-6-methoxy-1H-pyrrolo[2,3-b]pyridin-5-yl)oxy)-N-((6-((((1r,4r)-4-hydroxy-4-methylcyclohexyl)methyl)amino)-5-nitropyridin-3-yl)sulfonyl)benzamide], the IC50 in the data set with RS4;11-BCL-2 D103E cells amounted to 1 nM; in the data set with RS4;11-BCL-2 D103Y cells it was 5 nM; in the data set with RS4;11-BCL-2 G101V cells, 1 nM.
As to `COc1nc2[nH]cc(F)c2cc1Oc1cc(N2CCC3(CC2)CC(N2CCN(Cc4ccc(C5CC5)c(OC)n4)C[C@H]2c2ccccc2C(C)C)C3)ccc1C(=O)NS(=O)(=O)c1cnc(NC[C@H]2CC[C@](C)(O)CC2)c([N+](=O)[O-])c1` [Example 289, 4-(2-((R)-4-((5-cyclopropyl-6-methoxypyridin-2-yl)methyl)-2-(2-isopropylphenyl)piperazin-1-yl)-7-azaspiro[3.5]nonan-7-yl)-2-((3-fluoro-6-methoxy-1H-pyrrolo[2,3-b]pyridin-5-yl)oxy)-N-((6-((((1r,4r)-4-hydroxy-4-methylcyclohexyl)methyl)amino)-5-nitropyridin-3-yl)sulfonyl)benzamide], the IC50 with RS4;11-BCL-2 D103E cells came to 1 nM; with Toledo cells, 1 nM; in the data set on RS4;11-BCL-2 F104L cells it was 1 nM; in the data set on RS4;11-BCL-2 G101V cells, 2 nM. The compound further had an area under the curve AUC(0-t) in data set [1] of 3450 ng·h/mL. Further, the half-life in data set [1] was 8.1 h. In data set [1], the Cmax stood at 357 ng/mL.

As usually defined, the IC50 is the concentration that gives 50% inhibition. As a reminder, the AUC(0-t) is the area under the concentration-time curve up to a stated or last time point. One may read the half-life as how long it takes for the measured level to halve. High values mean slow loss, low ones fast loss.
